According to patent publication US8188108B2, “Pharmaceutical composition” (priority 2002, dated 2012):
Read-outs that look alike come from different tables or passages of the source.

How the values were obtained:
[1] = clinical; conditions: both, human, in vivo; for AUC(0-t) / AUC(0-inf) / Cmax: po, Least-Squares Means (LSM); for AUC(0-inf): AUCinf
[2] = plasma, fed vs fasting, Lortab + Colace co-administered, ln-transformed
[3] = plasma, fed vs fasting, Lortab administered alone, ln-transformed
[4] = plasma, with docusate vs without, fasting, ln-transformed
[5] = plasma, with docusate vs without, fed, ln-transformed
[6] = Form A, plasma, Treatment A: one 10 mg/500 mg Lortab tablet + one 50 mg Colace capsule, single oral dose, fasting
[7] = Form A, plasma, Treatment A: Lortab 10 mg/500 mg + Colace 50 mg, single oral dose, fasting
[8] = Form B, plasma, Treatment B: Lortab 10 mg/500 mg alone, single oral dose, fasting
[9] = Form C, plasma, Treatment C: Lortab 10 mg/500 mg + Colace 50 mg, single oral dose, fed
[10] = Form D, plasma, Treatment D: Lortab 10 mg/500 mg alone, single oral dose, fed

In the case of `CC(=O)Nc1ccc(O)cc1` [Acetaminophen, acetaminophen], the “effect of food on Cmax (rate of exposure)” value (shortened to “effect of food on Cmax”) (fed vs fasting) is reported as “lowering the Cmax”, the “AUC 0-t, Least-Squares Means (LSM), Form D” value (plasma, Treatment D: one 10 mg/500 mg Lortab tablet alone, single oral dose, fed (30 min after start of standard breakfast)) is reported as 19545.72 ng·h/mL and the “AUC 0-t, Ratio of LSM (C/A)” value [2] is reported as 93.5%. For the same compound, the “AUCinf, Ratio of LSM (C/A)” value [2] was 94.8%, the “Cmax, Ratio of LSM (C/A)” value [2] was 72.3% and the “AUC 0-t, Ratio of LSM (D/B)” value [3] was 94.3%. The “AUCinf, Ratio of LSM (D/B)” value [3] was 97.3%, the “Cmax, Ratio of LSM (D/B)” value [3] was 67.9% and the “AUC 0-t, Ratio of LSM (A/B)” value [4] was 101.4%. The “AUCinf, Ratio of LSM (A/B)” value [4] was 102.9%, the “Cmax, Ratio of LSM (A/B)” value [4] was 92.0% and the “AUC 0-t, Ratio of LSM (C/D)” value [5] was 100.5%. The “AUCinf, Ratio of LSM (C/D)” value [5] was 100.3%, the “Cmax, Ratio of LSM (C/D)” value [5] was 97.9% and the “effect of docusate on the pharmacokinetics” value (under fed and fasted conditions) was “no significant effect”. For the same compound, the AUC(0-t) [1, 6] was 21000 ng·h/mL, the AUC(0-t) ([1]; Form B, plasma, Treatment B: one 10 mg/500 mg Lortab tablet alone, single oral dose, fasting) was 20700 ng·h/mL and the AUC(0-inf) [1, 7] was 22700 ng·h/mL. It also gave an AUC(0-inf) [1, 8] of 22000 ng·h/mL, an AUC(0-inf) [1, 9] of 21500 ng·h/mL and an AUC(0-inf) [1, 10] of 21400 ng·h/mL. It also gave a Cmax [1, 7] of 5450 ng/mL, a Cmax [1, 8] of 5920 ng/mL and a Cmax [1, 9] of 3940 ng/mL. The Cmax [1, 10] was 4020 ng/mL.
With `CCCCC(CC)COC(=O)CC(C(=O)OCC(CC)CCCC)S(=O)(=O)O` (stereo not shown) [Docusate, dioctyl sodium sulphosuccinate] the “absorption of docusate (measurable plasma concentrations)” value (50 mg Colace capsule oral, throughout the period of blood sampling) was “absorbed in measurable amounts”, the “effect of food on Cmax” value (fed vs fasting) was “not significantly affected by food” and the “AUC 0-t, Ratio of LSM (C/A)” value [2] was 124.2%. For the same compound, the “AUCinf, Ratio of LSM (C/A)” value [2] was 128.8%, the “Cmax, Ratio of LSM (C/A)” value [2] was 104.4% and the “Cmax, Ratio of LSM (C/A)” value (plasma, fed vs fasting, Lortab + Colace co-administered, ln-transformed, listed as docusate) was 104.5%. It also gave an AUC(0-t) [1, 6] of 1170 ng·h/mL, an AUC(0-inf) [1, 7] of 1170 ng·h/mL and an AUC(0-inf) [1, 9] of 1510 ng·h/mL. The Cmax [1, 7] was 608 ng/mL and the Cmax [1, 9] was 635 ng/mL.
In the case of `COc1ccc2c3c1O[C@H]1C(=O)CC[C@H]4[C@@H](C2)N(C)CC[C@]314` [Hydrocodone, hydrocodone], the “AUC 0-t, Ratio of LSM (A/B)” value (both, human, in vivo) is reported as 102.5%, the “AUC 0-t, Ratio of LSM (C/A)” value (both, human, in vivo) is reported as 105.0% and the “AUC 0-t, Ratio of LSM (C/D)” value (both, human, in vivo) is reported as 97.4%. The “AUC 0-t, Ratio of LSM (D/B)” value (both, human, in vivo) was 110.6%, the “AUCinf, Ratio of LSM (A/B)” value (both, human, in vivo) was 107.2% and the “AUCinf, Ratio of LSM (C/A)” value (both, human, in vivo) was 105.0%. For the same compound, the “AUCinf, Ratio of LSM (C/D)” value (both, human, in vivo) was 97.4%, the “AUCinf, Ratio of LSM (D/B)” value (both, human, in vivo) was 115.6% and the “Cmax, Ratio of LSM (A/B)” value (both, human, in vivo) was 100.2%. The “Cmax, Ratio of LSM (C/A)” value (both, human, in vivo) was 91.7%, the “Cmax, Ratio of LSM (C/D)” value (both, human, in vivo) was 97.0% and the “Cmax, Ratio of LSM (D/B)” value (both, human, in vivo) was 94.6%. For the same compound, the “effect of docusate on the pharmacokinetics” value (in vivo) was “no significant effect”, the “effect of food on Cmax” value (in vivo) was “no significant effect” and the “effect of food on extent of exposure (AUC)” value (in vivo) was “no significant effect”. It also gave a Tmax [1] of ~1 h, an AUC(0-t) ([1]; Form A) of 135 ng·h/mL and an AUC(0-t) ([1]; Form B) of 132 ng·h/mL. For the same compound, the AUC(0-t) ([1]; Form C) was 142 ng·h/mL, the AUC(0-t) ([1]; Form D) was 146 ng·h/mL and the AUC(0-inf) ([1]; Form A) was 162 ng·h/mL. The AUC(0-inf) ([1]; Form B) was 151 ng·h/mL, the AUC(0-inf) ([1]; Form C) was 170 ng·h/mL and the AUC(0-inf) ([1]; Form D) was 175 ng·h/mL. For the same compound, the Cmax ([1]; Form A) was 24.3 ng/mL, the Cmax ([1]; Form B) was 24.2 ng/mL and the Cmax ([1]; Form C) was 22.3 ng/mL. The Cmax ([1]; Form D) was 22.9 ng/mL.
